Assay results taken from patent US9708278B2, “Substituted 4-benzyl-3,4-dihydro-2H-benzo[B][1,4]oxazine-2-carboxamide analogs as positive allosteric modulators of muscarinic acetycholine receptor M1” (Vanderbilt University, priority 2013, dated 2017).

Biological target: T1, mAChR M1 (UniProt P08482)
T1 sequence (P08482 1-460): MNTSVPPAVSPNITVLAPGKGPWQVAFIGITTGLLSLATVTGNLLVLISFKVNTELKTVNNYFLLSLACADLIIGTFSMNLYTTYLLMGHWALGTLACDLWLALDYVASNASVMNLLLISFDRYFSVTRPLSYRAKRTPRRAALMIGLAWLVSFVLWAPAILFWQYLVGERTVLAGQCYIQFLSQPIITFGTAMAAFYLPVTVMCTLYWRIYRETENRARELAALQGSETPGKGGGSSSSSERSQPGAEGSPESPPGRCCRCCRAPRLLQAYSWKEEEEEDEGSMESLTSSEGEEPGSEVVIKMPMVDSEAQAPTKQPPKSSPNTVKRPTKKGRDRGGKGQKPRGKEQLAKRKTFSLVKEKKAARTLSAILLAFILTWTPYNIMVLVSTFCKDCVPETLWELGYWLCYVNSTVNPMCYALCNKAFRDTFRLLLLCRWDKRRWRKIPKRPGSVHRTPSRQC
Test: mAChR M1 cell-based functional assay (calcium mobilization, PAM mode)
Details: positive allosteric modulator activity: concentration-dependent increase in the EC20 acetylcholine response; calcium flux in CHO-K1 cells stably expressing mAChR M1
Description: The calcium mobilization assay was also used to determine “efficacy”.
N-Substituted 3,4-dihydro-benzo[b][1,4]oxazine-2-carboxamide analogs were synthesized as described above. […] The compound number corresponds to the compound numbers used in Table I.

Row | SMILES | EC50
1 | O=C(Nc1ccccc1F)C1CN(Cc2ccc(-n3cccn3)cc2)c2ccccc2O1 (stereo not drawn) [Compound B55] | ≥ 10 µM

Same assay, conditions: positive allosteric modulator activity: concentration-dependent increase in the EC20 acetylcholine response; calcium flux in CHO-K1 cells stably expressing mAChR M1; read-out: EC50

Row | EC50 | SMILES
2 | 7.75 µM | COc1ccc(CN2C[C@H](C(=O)N[C@H]3CCCC[C@@H]3O)Oc3ccccc32)cc1 (single isomer, unassigned) [Compound B9]
3 | ≥ 10 µM | COc1ccc(CN2C[C@@H](C(=O)N[C@H]3CCCC[C@@H]3O)Oc3ccccc32)cc1 (single isomer, unassigned) [Compound B10]
4 | 3.69 µM | CC(C)C[C@@H](CO)NC(=O)[C@@H]1CN(Cc2ccc(-n3cccn3)cc2)c2ccccc2O1 (single isomer, unassigned) [Compound B19]
5 | 2.07 µM | CC(C)C[C@@H](CO)NC(=O)[C@H]1CN(Cc2ccc(-n3cccn3)cc2)c2ccccc2O1 (single isomer, unassigned) [Compound B20]
6 | 0.573 µM | O=C(N[C@H]1CCCC[C@@H]1O)C1CN(Cc2ccc(-n3cccn3)cc2)c2ccccc2O1 (single isomer, unassigned) [Compound B29]
7 | 0.199 µM | O=C(N[C@H]1CCCC[C@@H]1O)C1CN(Cc2ccc(-n3cccn3)cc2)c2ccccc2O1 (single isomer, unassigned) [Compound B41]
8 | 0.302 µM | O=C(N[C@H]1CCCC[C@@H]1O)C1CN(Cc2ccc(-n3cccn3)cc2)c2ccccc2O1 (stereo partly drawn) [Compound B1, 4-(4-(1H-pyrazol-1-yl)benzyl)-N-((1S,2S)-2-hydroxycyclohexyl)-3,4-dihydro-2H-benzo[b][1,4]oxazine-2-carboxamide]
9 | 0.543 µM | O=C(Nc1ncccc1O)C1CN(Cc2ccc(-n3cccn3)cc2)c2ccccc2O1 (stereo not drawn) [Compound B2, 4-(4-(1H-pyrazol-1-yl)benzyl)-N-(3-hydroxypyridin-2-yl)-3,4-dihydro-2H-benzo[b][1,4]oxazine-2-carboxamide]
10 | ≥ 10 µM | O=C(NC1COC1)C1CN(Cc2ccc(-n3cccn3)cc2)c2ccccc2O1 (stereo not drawn) [Compound B3]
11 | > 30 µM | O=C(N[C@H]1CCCC[C@@H]1O)C1CN(Cc2c(F)cc(Br)cc2F)c2ccccc2O1 (stereo partly drawn) [Compound B4, 4-(4-bromo-2,6-difluorobenzyl)-N-((1S,2S)-2-hydroxycyclohexyl)-3,4-dihydro-2H-benzo[b][1,4]oxazine-2-carboxamide]
12 | ≥ 10 µM | COc1ccc(CN2CC(C(=O)N[C@H]3CCCC[C@@H]3O)Oc3ccccc32)cc1 (stereo partly drawn) [Compound B5]
13 | ≥ 10 µM | Cn1cc2c(-c3cc(F)c(CN4CC(C(=O)N[C@H]5CCCC[C@@H]5O)Oc5ccccc54)c(F)c3)cccc2n1 (stereo partly drawn) [Compound B6, 4-(2,6-difluoro-4-(2-methyl-2H-indazol-4-yl)benzyl)-N-((1S,2S)-2-hydroxycyclohexyl)-3,4-dihydro-2H-benzo[b][1,4]oxazine-2-carboxamide]
14 | > 30 µM | Cn1cc(-c2ccc(CN3CC(C(=O)N[C@H]4CCCC[C@@H]4O)Oc4ccccc43)cc2)cn1 (stereo partly drawn) [Compound B7]
15 | 4.21 µM | O=C(N[C@H]1CCCC[C@@H]1O)C1CN(Cc2ccc(Cl)nc2)c2ccccc2O1 (stereo partly drawn) [Compound B8]
16 | 3.56 µM | CC(C)CNC(=O)C1CN(Cc2ccc(-n3cccn3)cc2)c2ccccc2O1 (stereo not drawn) [Compound B11]
17 | 4.82 µM | O=C(NCc1ccccn1)C1CN(Cc2ccc(-n3cccn3)cc2)c2ccccc2O1 (stereo not drawn) [Compound B12]
18 | 1.44 µM | COC(=O)CNC(=O)C1CN(Cc2ccc(-n3cccn3)cc2)c2ccccc2O1 (stereo not drawn) [Compound B13]
19 | ≥ 10 µM | O=C(Nc1ccccc1O)C1CN(Cc2ccc(-n3cccn3)cc2)c2ccccc2O1 (stereo not drawn) [Compound B14]
20 | ≥ 10 µM | O=C(Nc1ccccn1)C1CN(Cc2ccc(-n3cccn3)cc2)c2ccccc2O1 (stereo not drawn) [Compound B15]

Row | EC50 | SMILES
21 | > 30 µM | CC(C)(CO)NC(=O)C1CN(Cc2ccc(-n3cccn3)cc2)c2ccccc2O1 (stereo not drawn) [Compound B16]
22 | ≥ 10 µM | O=C(NC1CC1)C1CN(Cc2ccc(-n3cccn3)cc2)c2ccccc2O1 (stereo not drawn) [Compound B17]
23 | ≥ 10 µM | O=C(NC1CCCCC1)C1CN(Cc2ccc(-n3cccn3)cc2)c2ccccc2O1 (stereo not drawn) [Compound B18]
24 | 5.36 µM | CNC(=O)C1CN(Cc2ccc(-n3cccn3)cc2)c2ccccc2O1 (stereo not drawn) [Compound B21]
25 | ≥ 10 µM | CC(C)NC(=O)C1CN(Cc2ccc(-n3cccn3)cc2)c2ccccc2O1 (stereo not drawn) [Compound B22]
26 | ≥ 10 µM | O=C(NC1CCOC1)C1CN(Cc2ccc(-n3cccn3)cc2)c2ccccc2O1 (stereo not drawn) [Compound B23]
27 | ≥ 10 µM | O=C(NCCCN1CCOCC1)C1CN(Cc2ccc(-n3cccn3)cc2)c2ccccc2O1 (stereo not drawn) [Compound B24]
28 | > 30 µM | COc1ccc(OCCNC(=O)C2CN(Cc3ccc(-n4cccn4)cc3)c3ccccc3O2)cc1 (stereo not drawn) [Compound B25]
29 | > 30 µM | O=C(NCC(F)(F)F)C1CN(Cc2ccc(-n3cccn3)cc2)c2ccccc2O1 (stereo not drawn) [Compound B26]
30 | 7.66 µM | O=C(NC1CCC1)C1CN(Cc2ccc(-n3cccn3)cc2)c2ccccc2O1 (stereo not drawn) [Compound B27]
31 | ≥ 10 µM | O=C(NC1CCCC1)C1CN(Cc2ccc(-n3cccn3)cc2)c2ccccc2O1 (stereo not drawn) [Compound B28]
32 | 4.43 µM | O=C(NC1CCOCC1)C1CN(Cc2ccc(-n3cccn3)cc2)c2ccccc2O1 (stereo not drawn) [Compound B30]
33 | > 30 µM | O=C(Nc1ccccc1)C1CN(Cc2ccc(-n3cccn3)cc2)c2ccccc2O1 (stereo not drawn) [Compound B31]
34 | 3.3 µM | NC(=O)C1CN(Cc2ccc(-n3cccn3)cc2)c2ccccc2O1 (stereo not drawn) [Compound B32]
35 | 6.54 µM | O=C(NCCO)C1CN(Cc2ccc(-n3cccn3)cc2)c2ccccc2O1 (stereo not drawn) [Compound B33]
36 | > 30 µM | CC1(NC(=O)C2CN(Cc3ccc(-n4cccn4)cc3)c3ccccc3O2)COC1 (stereo not drawn) [Compound B34]
37 | 4.66 µM | C[C@@H](CO)NC(=O)C1CN(Cc2ccc(-n3cccn3)cc2)c2ccccc2O1 (stereo partly drawn) [Compound B35]
38 | 3.8 µM | CC(C)(O)CNC(=O)C1CN(Cc2ccc(-n3cccn3)cc2)c2ccccc2O1 (stereo not drawn) [Compound B36]
39 | ≥ 10 µM | O=C(NC1CCCOC1)C1CN(Cc2ccc(-n3cccn3)cc2)c2ccccc2O1 (stereo not drawn) [Compound B37]

Row | EC50 | SMILES
40 | > 30 µM | O=C(NCCOc1ccccc1F)C1CN(Cc2ccc(-n3cccn3)cc2)c2ccccc2O1 (stereo not drawn) [Compound B38]
41 | > 30 µM | COc1ccccc1OCCNC(=O)C1CN(Cc2ccc(-n3cccn3)cc2)c2ccccc2O1 (stereo not drawn) [Compound B39]
42 | > 30 µM | O=C(NCCOc1ccc(F)cc1)C1CN(Cc2ccc(-n3cccn3)cc2)c2ccccc2O1 (stereo not drawn) [Compound B40]
43 | 4.7 µM | O=C(N[C@H]1CCCC[C@@H]1O)C1CN(Cc2ccc(C(F)(F)F)nc2)c2ccccc2O1 (stereo partly drawn) [Compound B42]
44 | ≥ 10 µM | COCC(C)NC(=O)C1CN(Cc2ccc(-n3cccn3)cc2)c2ccccc2O1 (stereo not drawn) [Compound B43]
45 | ≥ 10 µM | O=C(N[C@@H](CO)[C@H](O)c1ccccc1)C1CN(Cc2ccc(-n3cccn3)cc2)c2ccccc2O1 (stereo partly drawn) [Compound B44]
46 | 7.38 µM | O=C(Nc1cccc2cn[nH]c12)C1CN(Cc2ccc(-n3cccn3)cc2)c2ccccc2O1 (stereo not drawn) [Compound B45]
47 | 2.28 µM | O=C(NCC(O)C(F)(F)F)C1CN(Cc2ccc(-n3cccn3)cc2)c2ccccc2O1 (stereo not drawn) [Compound B46]
48 | > 30 µM | O=C(Nc1ccn[nH]1)C1CN(Cc2ccc(-n3cccn3)cc2)c2ccccc2O1 (stereo not drawn) [Compound B47]
49 | 2.4 µM | COc1cccnc1NC(=O)C1CN(Cc2ccc(-n3cccn3)cc2)c2ccccc2O1 (stereo not drawn) [Compound B48]
50 | ≥ 10 µM | O=C(Nc1ncc(F)cc1F)C1CN(Cc2ccc(-n3cccn3)cc2)c2ccccc2O1 (stereo not drawn) [Compound B49]
51 | 2.57 µM | O=C(Nc1ncccc1F)C1CN(Cc2ccc(-n3cccn3)cc2)c2ccccc2O1 (stereo not drawn) [Compound B50]
52 | 7.65 µM | COCCNC(=O)C1CN(Cc2ccc(-n3cccn3)cc2)c2ccccc2O1 (stereo not drawn) [Compound B51]
53 | ≥ 10 µM | O=C(NCC(F)F)C1CN(Cc2ccc(-n3cccn3)cc2)c2ccccc2O1 (stereo not drawn) [Compound B52]
54 | > 30 µM | Cc1ccc(NC(=O)C2CN(Cc3ccc(-n4cccn4)cc3)c3ccccc3O2)c(O)c1 (stereo not drawn) [Compound B53]
55 | 1.15 µM | O=C(N[C@H]1CCC[C@@H]1O)C1CN(Cc2ccc(-n3cccn3)cc2)c2ccccc2O1 (stereo partly drawn) [Compound B54]
56 | ≥ 10 µM | Cc1ccccc1NC(=O)C1CN(Cc2ccc(-n3cccn3)cc2)c2ccccc2O1 (stereo not drawn) [Compound B56]
57 | 3.6 µM | O=C(N[C@H]1CCCC[C@@H]1O)C1CN(Cc2ccc(C(F)(F)F)nc2)c2cccc(F)c2O1 (stereo partly drawn) [Compound B57, 8-fluoro-N-((1S,2S)-2-hydroxycyclohexyl)-4-((6-(trifluoromethyl)pyridin-3-yl)methyl)-3,4-dihydro-2H-benzo[b][1,4]oxazine-2-carboxamide]
